Results as given in patent publication US10774053B2, “HIV protease inhibitors” (Gilead Sciences, Inc., priority 2017, dated 2020).

system: HIV-1 (IIIB) in MT-4 cells; experiment: microbe, parasite or virus in culture; assay type: cell-based; conditions: Human immunodeficiency virus 1, IIIB, MT4, MT-4 cells, HIV-1; read-out: MT4 EC50
Description: Compounds were serially diluted (1:3) in DMSO on 384-well polypropylene plates and further diluted 200-fold into complete RPMI media (10% FBS, 1% P/S) using the Biotek Micro Flow and Agilent ECHO acoustic dispenser. Each plate contained up to 8 test compounds, with negative (No Drug Control) and 5 uM AZT positive controls. MT-4 cells were pre-infected with 10 uL of either RPMI (mock-infected) or a fresh 1:250 dilution of an HIV-1 (IIIB) concentrated virus stock. Infected and uninfected MT-4 cells were further diluted in complete RPMI media and added to each plate using a Micro Flow dispenser. After 5 days incubation in a humidified and temperature controlled incubator (37° C.), Cell Titer Glo (Promega) was added to the assay plates to quantify the amount of luciferase.

Structure (SMILES) | EC50 [µM]
CC(C)(C)C[C@]1(c2ccc(-c3cnn(C(F)F)c3)cc2)NC(=N)N([C@H](COC(=O)N2CC(F)(F)C2)c2ccc(Cl)c(-c3ncn[nH]3)c2)C1=O [Compound 67] | 0.0208
CC(C)(C)C[C@]1(c2ccc(-c3cnn(C(F)F)c3)cc2)NC(=N)N([C@H](COC(=O)NC(C)(C)C)c2ccc(Cl)c(-c3ncn[nH]3)c2)C1=O [Compound 68] | 0.0216
CC(C)(C)C[C@]1(c2ccc(-c3cnn(C(F)F)c3)cc2)NC(=N)N([C@H](COC(=O)NC(C)(C)C(F)F)c2ccc(Cl)c(-c3ncn(C(F)F)n3)c2)C1=O [Compound 69] | 0.0326
CC(C)(C)C[C@]1(c2ccc(-c3cnn(C(F)F)c3)cc2)NC(=N)N([C@H](COC(=O)NC2(C)CC2)c2ccc(Cl)c(-c3ncn(C(F)F)n3)c2)C1=O [Compound 70] | 0.0294
CC(C)(C)C[C@]1(c2ccc(-c3cnn(C(F)F)c3)cc2)NC(=N)N([C@H](COC(=O)NC2(C(F)(F)F)CC2)c2ccc(Cl)c(C#N)c2)C1=O [Compound 71] | 0.324
CC(C)(C)C[C@]1(c2ccc(-c3cnn(C(F)F)c3)cc2)NC(=N)N([C@H](COC(=O)N2CC(C)(C)C2)c2ccc(Cl)c(-c3ncn[nH]3)c2)C1=O [Compound 75] | 0.0305
CC(C)(C)C[C@]1(c2ccc(-c3cnn(C(F)F)c3)cc2)NC(=N)N([C@H](COC(=O)N2CC(C)(F)C2)c2ccc(Cl)c(-c3ncn[nH]3)c2)C1=O [Compound 76] | 0.0348
CC(C)(C)C[C@]1(c2ccc(-c3cnn(C4CC4)c3)cc2)NC(=N)N([C@H](COC(=O)N2CC(F)(F)C2)c2ccc(Cl)c(-c3ncn[nH]3)c2)C1=O [Compound 77] | 0.0389
CC(C)(C)C[C@]1(c2ccc(-c3cnn(C4CC4)c3)cc2)NC(=N)N([C@H](COC(=O)NC(C)(C)C(F)F)c2ccc(Cl)c(-c3ncn[nH]3)c2)C1=O [Compound 79] | 0.0645
CC(C)(C)C[C@]1(c2ccc(-c3cnn(C(F)F)c3)cc2)NC(=N)N([C@H](COC(=O)N(CC(F)F)C2CC2)c2ccc(Cl)c(-c3ncn[nH]3)c2)C1=O [Compound 80] | 0.0288
CN(C)C(=O)OC[C@H](c1ccc(Cl)c(-c2ncn[nH]2)c1)N1C(=N)N[C@](CC(C)(C)C)(c2ccc(-c3cnn(C(F)F)c3)cc2)C1=O [Compound 81] | 0.0316
CC(C)(C)C[C@]1(c2ccc(-c3cnn(C(F)F)c3)cc2)NC(=N)N([C@H](COC(=O)N2CC3(COC3)C2)c2ccc(Cl)c(-c3ncn[nH]3)c2)C1=O [Compound 82] | 0.18
CC(C)(C)C[C@]1(c2ccc(-c3cnn(C(F)F)c3)cc2)NC(=N)N([C@H](COC(=O)N2CC(C(F)(F)F)C2)c2ccc(Cl)c(-c3ncn[nH]3)c2)C1=O [Compound 83] | 0.0334
CC(C)(C)C[C@]1(c2ccc(-c3cnn(C(F)F)c3)cc2)NC(=N)N([C@H](COC(=O)N2CC(S(C)(=O)=O)C2)c2ccc(Cl)c(-c3ncn[nH]3)c2)C1=O [Compound 84] | 1.05
CC(C)(C)C[C@]1(c2ccc(-c3cnn(C(F)F)c3)cc2)NC(=N)N([C@H](COC(=O)N2CC(C)(C#N)C2)c2ccc(Cl)c(-c3ncn[nH]3)c2)C1=O [Compound 85] | 0.112
CC(C)(C)C[C@]1(c2ccc(-c3cnn(C(F)F)c3)cc2)NC(=N)N([C@H](COC(=O)N2CCC2)c2ccc(Cl)c(-c3ncn[nH]3)c2)C1=O [Compound 86] | 0.0354
CC(C)(C)C[C@]1(c2ccc(-c3cnn(C(F)F)c3)cc2)NC(=N)N([C@H](COC(=O)N2CC3(CC3)C2)c2ccc(Cl)c(-c3ncn[nH]3)c2)C1=O [Compound 87] | 0.0385
CC1CCN1C(=O)OC[C@H](c1ccc(Cl)c(-c2ncn[nH]2)c1)N1C(=N)N[C@](CC(C)(C)C)(c2ccc(-c3cnn(C(F)F)c3)cc2)C1=O (some centres unmarked) [Compound 88] | 0.0243
CC(C)(C)C[C@]1(c2ccc(-c3cnn(C(F)F)c3)cc2)NC(=N)N([C@H](COC(=O)N2CC3(CCO3)C2)c2ccc(Cl)c(-c3ncn[nH]3)c2)C1=O [Compound 92] | 0.113
CC(C)(C)C[C@]1(c2ccc(-c3cnn(C(F)F)c3)cc2)NC(=N)N([C@H](COC(=O)NC2(C(F)F)CC2)c2ccc(Cl)c(-c3ncn[nH]3)c2)C1=O [Compound 93] | 0.105
CC(C)(C)C[C@]1(c2ccc(-c3cnn(C(F)F)c3)cc2)NC(=N)N([C@H](COC(=O)NC2COC2)c2ccc(Cl)c(-c3ncn[nH]3)c2)C1=O [Compound 94] | 0.341
CC(C)(C)C[C@]1(c2ccc(-c3cnn(C(F)F)c3)cc2)NC(=N)N([C@H](COC(=O)N(CC(F)(F)F)C2CC2)c2ccc(Cl)c(-c3ncn[nH]3)c2)C1=O [Compound 95] | 0.0304
[2H]C([2H])([2H])n1cnc(-c2cc([C@@H](COC(=O)NC(C)(C)C(F)F)N3C(=N)N[C@](C[C@@]4(C)CC4(F)F)(c4ccc(-c5cnn(C(F)F)c5)cc4)C3=O)ccc2Cl)n1 [Compound 96] | 0.0837

Structure (SMILES) | EC50 [µM]
[2H]C([2H])([2H])n1cnc(-c2cc([C@@H](COC(=O)NC(C)(C)C(F)F)N3C(=N)N[C@](CC4(C)CC4)(c4ccc(-c5cnn(C(F)F)c5)cc4)C3=O)ccc2Cl)n1 [Compound 98] | 0.052
CC(C)(C)C[C@]1(c2ccc(-c3cnn(C(F)F)c3)cc2)NC(=N)N([C@H](COC(=O)N2CC(C(F)F)C2)c2ccc(Cl)c(-c3ncn[nH]3)c2)C1=O [Compound 99] | 0.0657
CC(C)(F)C[C@]1(c2ccc(-c3cnn(C(F)F)c3)cc2)NC(=N)N([C@H](COC(=O)N2CC(F)(F)C2)c2ccc(Cl)c(-c3ncn[nH]3)c2)C1=O [Compound 101] | 0.0659
CC(C)(C)C[C@]1(c2ccc(-c3cnn(C(F)F)c3)cc2)NC(=N)N([C@H](COC(=O)NC(C)(CO)CO)c2ccc(Cl)c(-c3ncn[nH]3)c2)C1=O [Compound 102] | 0.196
CC(C)(C)C[C@]1(c2ccc(-c3ncccn3)cc2)NC(=N)N([C@H](COC(=O)N2CC(F)(F)C2)c2ccc(Cl)c(-c3ncn[nH]3)c2)C1=O [Compound 104] | 0.0335
CC(C)(C)C[C@]1(c2ccc(-c3cnn(C4COC4)c3)cc2)NC(=N)N([C@H](COC(=O)NC(C)(C)C)c2ccc(Cl)c(-c3ncn[nH]3)c2)C1=O [Compound 106] | 0.101
CC(C)(C)C[C@]1(c2ccc(-c3cnn(C(F)F)c3)cc2)NC(=N)N([C@H](COC(=O)Nc2ccccc2)c2ccc(Cl)c(-c3ncn[nH]3)c2)C1=O [Compound 107] | 0.0491
CC(C)(C)C[C@]1(c2ccc(-c3cnn(C(F)F)c3)cc2)NC(=N)N([C@H](COC(=O)Nc2ccccn2)c2ccc(Cl)c(-c3ncn[nH]3)c2)C1=O [Compound 108] | 0.0858
CC(C)(C)C[C@]1(c2ccc(-c3cnn(C(F)F)c3)cc2F)NC(=N)N([C@H](COC(=O)N2CC(F)(F)C2)c2ccc(Cl)c(-c3ncn[nH]3)c2)C1=O [Compound 111] | 0.0404
CC(C)(C)C[C@]1(c2ccc(-c3ncccn3)cc2F)NC(=N)N([C@H](COC(=O)NC2(C(F)(F)F)CC2)c2ccc(Cl)c(-c3ncn[nH]3)c2)C1=O [Compound 112] | 0.0404
CC(C)(C)C[C@]1(c2ccc(-c3cnn(C(F)F)c3)cc2F)NC(=N)N([C@H](COC(=O)NC(C)(C)C)c2ccc(Cl)c(-c3ncn[nH]3)c2)C1=O [Compound 114] | 0.0406
CC(C)(C)C[C@]1(c2ccc(-c3cnn(C(F)F)c3)cc2)NC(=N)N([C@H](COC(=O)NC(C)(C)C(F)(F)F)c2ccc(Cl)c(-c3ncnn3C(F)F)c2)C1=O [Compound 115] | 0.0117
CC(C)(C)C[C@]1(c2ccc(-c3ccccn3)cc2F)NC(=N)N([C@H](COC(=O)NC2(C(F)(F)F)CC2)c2ccc(Cl)c(-c3ncn[nH]3)c2)C1=O [Compound 116] | 0.0426
CC(C)(C)C[C@]1(c2ccc(-c3ncccn3)cc2)NC(=N)N([C@H](COC(=O)NC2(C(F)(F)F)CC2)c2ccc(Cl)c(-c3ncnn3C(F)F)c2)C1=O [Compound 117] | 0.00681
CC(C)(C)C[C@]1(c2ccc(-c3cnc(C#N)nc3)cc2)NC(=N)N([C@H](COC(=O)NC2(C(F)(F)F)CC2)c2ccc(Cl)c(-c3ncnn3C(F)F)c2)C1=O [Compound 118] | 0.0164
CC(C)(C)C[C@]1(c2ccc(-c3cnsc3)cc2)NC(=N)N([C@H](COC(=O)NC2(C(F)(F)F)CC2)c2ccc(Cl)c(-c3ncnn3C(F)F)c2)C1=O [Compound 119] | 0.0103
CC(C)(C)C[C@]1(c2ccc(-c3ccn4ccnc4c3)cc2)NC(=N)N([C@H](COC(=O)NC2(C(F)(F)F)CC2)c2ccc(Cl)c(-c3ncnn3C(F)F)c2)C1=O [Compound 120] | 0.0278
CC(C)(C)C[C@]1(c2ccc(-c3cnc4ccccn34)cc2)NC(=N)N([C@H](COC(=O)NC2(C(F)(F)F)CC2)c2ccc(Cl)c(-c3ncnn3C(F)F)c2)C1=O [Compound 121] | 0.021
CC(C)(C)C[C@]1(c2ccc(-c3cnc(C(F)(F)F)nc3)cc2)NC(=N)N([C@H](COC(=O)NC2(C(F)(F)F)CC2)c2ccc(Cl)c(-c3ncnn3C(F)F)c2)C1=O [Compound 122] | 0.0254
CC(C)(C)C[C@]1(c2ccc(-c3cnn(C(F)F)c3)cc2)NC(=N)N([C@H](COC(=O)NC2(C(F)(F)F)CC2)c2ccc(F)c(-c3ncnn3C(F)F)c2)C1=O [Compound 123] | 0.0281
CC(C)(C)C[C@]1(c2ccc(-c3ncccn3)cc2)NC(=N)N([C@H](COC(=O)NC(C)(C)C(F)F)c2ccc(Cl)c(-c3ncnn3C(F)F)c2)C1=O [Compound 125] | 0.012
CC(C)(F)C[C@]1(c2ccc(Br)cc2)NC(=N)N([C@H](COC(=O)NC(C)(C)C(F)F)c2ccc(Cl)c(-c3ncnn3C(F)F)c2)C1=O [Compound 126] | 0.242
CC(C)(F)C[C@]1(c2ccc(-c3ncccn3)cc2)NC(=N)N([C@H](COC(=O)NC(C)(C)C(F)F)c2ccc(Cl)c(-c3ncnn3C(F)F)c2)C1=O [Compound 127] | 0.0275

same assay, conditions: MT-4 cells, HIV-1; read-out: MT4 EC50

Structure (SMILES) | EC50 [µM]
CC(C)(C)C[C@H]1C(=O)N([C@H](COC(=O)NC(C)(C)C(F)F)c2ccc(F)c(-c3ncnn3C(F)F)c2)C(=N)N1c1ccc(-c2cnn(C(F)F)c2)cc1 [Compound 124] | 0.0653
